Key:
Format in all cases: biochemical
collagenase = assay: Collagenase inhibition, collagenase inhibitor screening kit (Sigma Aldrich MAK 293 Kit)
Procedure: (§1) A study of collagenase inhibition is conducted (e.g., Sigma Aldrich MAK 293 Kit) to investigate the was conducted to investigate the efficacy of an exemplary composition of the present invention (1.25% lactic acid; 0.625% mandelic acid; and 0.312% pyruvic acid) and individual short chain fatty acids, at the same concentrations.
as §1, with “mandelic acid and” for “lactic acid;”, “0.625%” for “0.625% mandelic acid; and 0.312%”
(§2) The anti-collagenase activity of an exemplary composition of the present invention was compared to the anti-collagenase activity of individual short chain fatty acids. Assays were performed using a collagenase inhibitor screening kit from Sigma Aldrich (MAK 293 Kit); and following the manufacturer's protocol. The results of these experiments are described in Table 2 (below).
as §2, with “Table 5” for “Table 2”

tyrosinase = assay: Tyrosinase inhibition, tyrosinase inhibitor screening kit (Sigma Aldrich MAK 257 Kit)
Procedure: A study of tyrosinase inhibition is conducted (e.g., Sigma Aldrich MAK 257 Kit) to investigate the efficacy of an exemplary composition of the present invention (0.312% lactic acid; 0.156% mandelic acid; and 0.078% pyruvic acid) and individual short chain fatty acids at the same concentrations.
A study of tyrosinase inhibition is conducted (e.g., Sigma Aldrich MAK 257 Kit) to investigate the efficacy of an exemplary composition of the present invention (0.312% mandelic acid and 0.156% pyruvic acid) and individual short chain fatty acids at the same concentrations.
as §2, with “anti-tyrosinase” for “anti-collagenase”, “tyrosinase” for “collagenase”, “257” for “293”, “1” for “2”
as §2, with “anti-tyrosinase” for “anti-collagenase”, “tyrosinase” for “collagenase”, “257” for “293”, “4” for “2”
Peels were diluted 1000× in buffer to prepare 0.1% working stock. The working stock was serially diluted 2× to test the peels at five doses (0.1 wt. %, 0.05 wt. %, 0.025 wt. %, 0.0125 wt. % and 0.00625 wt. %). The pH of all test samples and dilutions was measured before and after tyrosinase assay to exclude any effect of acid on the enzyme activity. The assay was performed using a commercial kit following manufacturer's protocol (e.g., MAK 257 Kit from Sigma Aldrich). LMP peels containing various concentrations of pyruvic acid at pH 2.5 (“R1 Peels”); LMP peels which were identically formulated to the R1 Peels, but with pH buffered to 3.6 (“R2 Peels”); and LMP′ peels which were identically formulated to the R2 Peels, other than the replacement of pyruvic acid with sodium pyruvate (“R3 Peels”), were all evaluated.

elastase = target: T1, elastase (Homo sapiens, UniProt P08246); assay: Elastase inhibition, elastase inhibitor screening kit (Sigma Aldrich MAK 213 Kit); conditions: Table 3, Example 7
T1 construct: purchased Sigma Aldrich MAK 213 Kit
T1 sequence (P08246 30-267): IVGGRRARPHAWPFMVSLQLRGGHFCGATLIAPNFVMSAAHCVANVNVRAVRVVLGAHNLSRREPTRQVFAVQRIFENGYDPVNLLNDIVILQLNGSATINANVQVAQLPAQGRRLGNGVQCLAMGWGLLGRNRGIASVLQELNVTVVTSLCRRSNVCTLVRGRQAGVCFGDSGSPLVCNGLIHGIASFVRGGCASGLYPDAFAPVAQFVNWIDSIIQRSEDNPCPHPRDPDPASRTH
Procedure: as §2, with “anti-elastase” for “anti-collagenase”, “an elastase” for “a collagenase”, “213” for “293”, “3” for “2”

## CC(O)C(=O)O (centres unmarked) [Lactic Acid (L), lactic acid]
collagenase; Table 2, Example 6, 1.25 wt. %
  % Collagenase Inhibition: 40.32%
collagenase; Table 5, Example 9, 1.25 wt. %
  % Collagenase Inhibition: 12.71%
collagenase; Table B, Example 2, 1.25 wt. %
  % Collagenase Inhibition: 12.71%
tyrosinase; Table 1, Example 5, 0.312 wt. %
  % Tyrosinase Inhibition: 52.72%
tyrosinase; Table 4, Example 8, 0.312 wt. %
  % Tyrosinase Inhibition: 1.23%
tyrosinase; Table A, Example 1, 0.312 wt. %
  % Tyrosinase Inhibition: 2.23%
elastase; 0.625 wt. %
  % Elastase Inhibition: 44.89%

## O=C(O)C(O)c1ccccc1 (centres unmarked) [Mandelic Acid (M), mandelic acid]
collagenase; Table 5, Example 9, 0.625 wt. %
  % Collagenase Inhibition: 8.57%
collagenase; Table B, Example 2, 0.625 wt. %
  % Collagenase Inhibition: 8.57%
collagenase; Table D, Example 4, 1.25 wt. %
  % Collagenase Inhibition: 11.26%
tyrosinase; Table 4, Example 8, 0.156 wt. %
  % Tyrosinase Inhibition: 0.06%
tyrosinase; Table A, Example 1, 0.156 wt. %
  % Tyrosinase Inhibition: 0.06%
tyrosinase; Table C, Example 3, 0.312 wt. %
  % Tyrosinase Inhibition: 1.17%

## CC(=O)C(=O)O [Pyruvic Acid (P), pyruvic acid]
collagenase; Table 2, Example 6, 0.312 wt. %
  % Collagenase Inhibition: 8.79%
collagenase; Table B, Example 2, 0.312 wt. %
  % Collagenase Inhibition: 6.70%
collagenase; Table D, Example 4, 0.625 wt. %
  % Collagenase Inhibition: 9.58%
tyrosinase; Table 1, Example 5, 0.078 wt. %
  % Tyrosinase Inhibition: 29.29%
tyrosinase; Table A, Example 1, 0.078 wt. %
  % Tyrosinase Inhibition: 0.37%
tyrosinase; Table C, Example 3, 0.156 wt. %
  % Tyrosinase Inhibition: 26.62%
elastase; 0.156 wt. %
  % Elastase Inhibition: 20.21%

Source: patent publication US20210275418A1, “Personal Care Compositions” (Colgate-Palmolive Company, priority 2020, published 2021)
